Test results from patent publication US10077237B2 (Sanofi, priority 2013, dated 2018).
Structures can show the parent of a compound that is named as a salt.

Target: T1, recombinant human AMPK complex, containing α2β1γ2 (Homo sapiens, UniProt P54646+Q9Y478)
T1 construct: hsAMPKα2-552-His, hsAMPKβ1-2-270 and hsAMPKγ-2-569 respectively; hsAMPKβ1-2-270; hsAMPKγ-2-569; His (C); made in house; host or cells: Spodoptera frugiperda Sf21 (baculovirus)
Assay: AMPK in vitro activation assay (HTRF)
Type: biochemical
Details: for EC50: HTRF, recombinant human α2β1γ2 AMPK, 200 μM ATP, biotinylated ACC-CREBp peptide, repeat determinations on separate lines; for Emax: potentiation of AMPK activity as percent over the basal signal (without compound)
Outline: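 Sf21-expressed, Ni-NTA partially purified α2β1γ2 complex preincubated 30 min at room temperature with compound (0.5% DMSO) in HEPES pH 7.0, MgCl2, DTT. Reaction was started with a solution holding 200 μM ATP and 2 or 0.08 μM biotinylated ACC-CREBp peptide, run 45 min at 37° C, then read by HTRF with anti-pS133-CREB; EC50 from percent over basal.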

T1 sequence (P54646 2-552): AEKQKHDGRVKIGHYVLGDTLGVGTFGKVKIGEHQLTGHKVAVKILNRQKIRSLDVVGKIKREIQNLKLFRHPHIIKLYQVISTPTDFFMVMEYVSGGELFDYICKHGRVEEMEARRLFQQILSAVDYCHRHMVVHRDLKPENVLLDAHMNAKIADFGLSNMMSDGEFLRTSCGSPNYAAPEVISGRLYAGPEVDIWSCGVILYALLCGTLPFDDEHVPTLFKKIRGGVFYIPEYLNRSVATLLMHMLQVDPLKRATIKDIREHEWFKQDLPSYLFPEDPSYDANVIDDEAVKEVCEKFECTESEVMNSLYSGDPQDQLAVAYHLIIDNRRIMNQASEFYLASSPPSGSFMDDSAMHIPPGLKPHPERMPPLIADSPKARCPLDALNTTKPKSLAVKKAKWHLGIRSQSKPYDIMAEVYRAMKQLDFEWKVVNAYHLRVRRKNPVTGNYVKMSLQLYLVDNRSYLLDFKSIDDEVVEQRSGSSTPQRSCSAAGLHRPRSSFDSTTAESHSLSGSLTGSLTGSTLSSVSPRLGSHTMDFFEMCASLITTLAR
T1 sequence (Q9Y478 2-270): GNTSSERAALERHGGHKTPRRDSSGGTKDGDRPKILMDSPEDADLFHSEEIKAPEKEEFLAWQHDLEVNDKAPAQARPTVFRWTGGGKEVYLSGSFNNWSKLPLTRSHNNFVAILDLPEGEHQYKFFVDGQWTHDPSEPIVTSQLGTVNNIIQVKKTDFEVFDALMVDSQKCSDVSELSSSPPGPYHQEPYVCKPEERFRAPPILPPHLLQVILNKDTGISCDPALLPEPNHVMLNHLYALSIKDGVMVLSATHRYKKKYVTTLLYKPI
T1 sequence (Q9UGJ0 2-569 partner limits assumed): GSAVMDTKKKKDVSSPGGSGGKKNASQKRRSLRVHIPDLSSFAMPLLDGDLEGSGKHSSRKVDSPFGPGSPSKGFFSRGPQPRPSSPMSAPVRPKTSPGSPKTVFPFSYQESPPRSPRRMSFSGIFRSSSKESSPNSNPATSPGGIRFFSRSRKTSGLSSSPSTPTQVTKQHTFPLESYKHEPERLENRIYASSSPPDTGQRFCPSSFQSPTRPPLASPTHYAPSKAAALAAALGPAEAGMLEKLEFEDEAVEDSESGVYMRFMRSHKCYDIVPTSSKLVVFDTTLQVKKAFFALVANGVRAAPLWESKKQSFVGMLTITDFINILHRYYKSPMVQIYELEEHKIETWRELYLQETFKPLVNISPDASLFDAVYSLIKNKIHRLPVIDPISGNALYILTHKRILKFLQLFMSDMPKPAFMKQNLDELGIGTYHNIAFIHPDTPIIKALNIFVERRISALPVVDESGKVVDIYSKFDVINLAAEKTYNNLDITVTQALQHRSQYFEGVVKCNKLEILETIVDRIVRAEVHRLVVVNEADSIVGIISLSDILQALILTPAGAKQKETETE

| EC50 | Emax | SMILES |
| --- | --- | --- |
| 0.006 µM | 131% | COc1cc(C(O)=C2C(=O)Nc3cc(Cl)c(-c4ccc(C5(OC)CCC5)cc4)cc32)on1 [Compound 110, 6-chloro-3-[hydroxy-(3-methoxyisoxazol-5-yl)methylene]-5-[4-(1-methoxycyclobutyl)phenyl]indolin-2-one] |
| 0.036 µM | 104% | Cc1[nH]c(=O)sc1C(O)=C1C(=O)Nc2cc(Cl)c(-c3ccc(N4CCOCC4)cc3)cc21 [Compound 107, 5-[-[6-chloro-5-(4-morpholinophenyl)-2-oxo-indolin-3-ylidene]-hydroxy-methyl]-4-methyl-3H-thiazol-2-one] |
| 0.014 µM | 137% | CN1CCC(c2ccc(-c3cc4c(cc3Cl)NC(=O)C4=C(O)c3cc(F)cc(F)c3)cc2)C1 (centres unmarked) [Compound 150, 6-chloro-3-[(3,5-difluorophenyl)hydroxy-methylene]-5-[4-(1-methylpyrrolidin-3-yl)phenyl]indolin-2-one hydrochloride] |
| 0.009 µM | 394% | COc1cc(C(O)=C2C(=O)Nc3cc(Cl)c(-c4ccc(C5CCNC5)cc4)cc32)on1 (centres unmarked) [Compound 134, 6-chloro-3-[hydroxy-(3-methoxyisoxazol-5-yl)methylene]-5-(4-pyrrolidin-3-ylphenyl)indolin-2-one hydrochloride] |
| 0.0004 µM | 272% | Cc1ccc(C(O)=C2C(=O)Nc3cc(Cl)c(-c4ccc(C5(CO)CC5)cc4)cc32)s1 [Compound 123, 6-chloro-5-[4-[1-(hydroxymethyl)cyclopropyl]phenyl]-3-[hydroxy-(5-methyl-2-thienyl)methylene]indolin-2-one] |
| 0.001 µM | 181% | COc1cc(C(O)=C2C(=O)Nc3cc(Cl)c(-c4ccc(OCCCN(C)C)cc4)cc32)on1 [Compound 173, 6-chloro-5-[4-[3-(dimethylamino)propoxy]phenyl]-3-[hydroxy-(3-methoxyisoxazol-5-yl)methylene]indolin-2-one] |
| 0.088 µM | 278% | COc1cc(C(O)=C2C(=O)Nc3cc(Cl)c(-c4ccc(N(C)C)nc4)cc32)on1 [Compound 146, 6-chloro-5-[6-(dimethylamino)-3-pyridyl]-3-[hydroxy-(3-methoxyisoxazol-5-yl)methylene]indolin-2-one] |
| 0.78 µM | 136% | COc1cc(-c2cc3c(cc2Cl)NC(=O)C3=C(O)c2cc(C)no2)ccc1O [Compound 81, 6-chloro-5-(4-hydroxy-3-methoxy-phenyl)-3-[hydroxy-(3-methylisoxazol-5-yl)methylene]indolin-2-one] |
| 0.0002 µM | 230% | COc1ccc(C(O)=C2C(=O)Nc3cc(F)c(-c4ccc(C5(CO)CC5)cc4)cc32)cc1F [Compound 125, 6-fluoro-3-[(3-fluoro-4-methoxy-phenyl)hydroxy-methylene]-5-[4-[1-(hydroxymethyl)cyclopropyl]phenyl]indolin-2-one] |
| 0.28 µM | 130% | Cc1cc(C(O)=C2C(=O)Nc3cc(Cl)c(-c4ccc(OCCN5CCOCC5)cc4)cc32)on1 [Compound 82, 6-chloro-3-[hydroxy-(3-methylisoxazol-5-yl)methylene]-5-[4-(2-morpholinoethoxy)phenyl]indolin-2-one hydrochloride] |
| 0.72 µM | 121% | O=C1Nc2cc(Cl)c(-c3ccc(N4CCOCC4)cc3)cc2C1=C(O)c1cccc(C(F)(F)F)c1 [Compound 40, 6-Chloro-3-[1-hydroxy-1-(3-trifluoromethyl-phenyl)-methylidene]-5-(4-morpholin-4-yl-phenyl)-1,3-dihydro-indol-2-one] |
| 0.15 µM | 189% | Cc1cc(C(O)=C2C(=O)Nc3cc(Cl)c(-c4ccc(F)cc4O)cc32)on1 [Compound 56, 6-Chloro-5-(4-fluoro-2-hydroxy-phenyl)-3-[1-hydroxy-1-(3-methyl-isoxazol-5-yl)-methylidene]-1,3-dihydro-indol-2-one] |
| 0.009 µM | 319% | COc1cc(C(O)=C2C(=O)Nc3cc(Cl)c(-c4ccc(C5CC(O)C5)cc4)cc32)on1 (centres unmarked) [Compound 135, 6-chloro-5-[4-(3-hydroxycyclobutyl)phenyl]-3-[hydroxy-(3-methoxyisoxazol-5-yl)methylene]indolin-2-one] |
| 0.12 µM | 113% | Cc1cc(C(O)=C2C(=O)Nc3cc(Cl)c(-c4ccc(-c5ccco5)cc4)cc32)on1 [Compound 65, 6-Chloro-5-(4-furan-2-yl-phenyl)-3-[1-hydroxy-1-(3-methyl-isoxazol-5-yl)methylidene]-1,3-dihydro-indol-2-one] |
| 0.007 µM | 141% | Cc1cc(C(O)=C2C(=O)Nc3cc(Cl)c(-c4ccc(C5CCN(C)CC5)cc4)cc32)on1 [Compound 78, 6-Chloro-3-[1-hydroxy-1-(3-methyl-isoxazol-5-yl)methylidene]-5-[4-(1-methyl-piperidin-4-yl)phenyl]-1,3-dihydro-indol-2-one, hydrochloride] |
| 0.002 µM | 198% | COc1cnccc1C(O)=C1C(=O)Nc2cc(Cl)c(-c3ccc(C4(CO)CC4)cc3)cc21 [Compound 175, 6-chloro-3-[hydroxy-(3-methoxy-4-pyridyl)methylene]-5-[4-[1-(hydroxymethyl)cyclopropyl]phenyl]indolin-2-one] |
| 0.015 µM | 107% | CC(=O)NCCOc1ccc(-c2cc3c(cc2Cl)NC(=O)C3=C(O)c2cc(C)no2)cc1 [Compound 104, N-[2-[4-[6-chloro-3-[hydroxy-(3-methylisoxazol-5-yl)methylene]-2-oxo-indolin-5-yl]phenoxy]ethyl]acetamide] |
| 0.009 µM | 373% | O=C1Nc2cc(Cl)c(-c3ccc(C4(CO)CC4)cc3)cc2C1=C(O)c1ccc(Cl)s1 [Compound 130, 6-chloro-3-[(5-chloro-2-thienyl)hydroxy-methylene]-5-[4-[1-(hydroxymethyl)cyclopropyl]phenyl]indolin-2-one] |
| 0.15 µM | 208% | Cc1cc(C(O)=C2C(=O)Nc3cc(Cl)c(-c4ccc(C5CCCO5)cc4)cc32)on1 (centres unmarked) [Compound 68, 6-Chloro-3-[1-hydroxy-1-(3-methyl-isoxazol-5-yl)methylidene]-5-[4-(tetrahydro-furan-2-yl)phenyl]-1,3-dihydro-indol-2-one] |
| 0.009 µM | 268% | Cc1nnc(C(O)=C2C(=O)Nc3cc(Cl)c(-c4ccc(N5CCOCC5)cc4)cc32)o1 [Compound 16, 6-Chloro-3-[1-hydroxy-1-(5-methyl-[1,3,4]oxadiazol-2-yl)-methylidene]-5-(4-morpholin-4-yl-phenyl)-1,3-dihydro-indol-2-one] |
| 0.014 µM | 150% | O=C1Nc2cc(Cl)c(-c3ccc(N4CCOCC4)cc3)cc2C1=C(O)c1cccc(N2CCOCC2)c1 [Compound 94, 6-chloro-3-[hydroxy-(3-morpholinophenyl)methylene]-5-(4-morpholinophenyl)indolin-2-one] |
| 0.0006 µM | 141% | O=C1Nc2cc(Cl)c(-c3ccc(C4(CO)CC4)cc3)cc2C1=C(O)c1cc2cccnc2o1 [Compound 157, 6-chloro-3-[furo[2,3-b]pyridin-2-yl(hydroxy)methylene]-5-[4-[1-(hydroxymethyl)cyclopropyl]phenyl]indolin-2-one] |
